Values quoted from earlier work, collected in US11737994B2, “Topical compositions for pain relief, manufacture and use” (priority 2014, dated 2023).

Settings: in words

CCCCCCCCC(=O)NCc1ccc(O)c(OC)c1 [Nonivamide, vanillylamide of n-nonanoic acid]
Heat stability: more heat-stable than capsaicin
